Assay results taken from US20060148858A1, “1, 2-Azole derivatives with hypoglycemic and hypolipidemic activity” (priority 2002, published 2006).

Which melting point does the source give for CCOc1nn(-c2ccccn2)cc1CCCOc1cc(CCC(=O)O)n(-c2ccccc2)n1 [Example 103, 3-(3-{3-[3-ethoxy-1-(2-pyridinyl)-1H-pyrazol-4-yl]propoxy}-1-phenyl-1H-pyrazol-5-yl)propanoic acid] here?
Its melting point is 156 to 157 °C.

Which melting point does the source give for CCOc1nn(-c2ccccn2)cc1CCCOc1cccc(CC(=O)O)c1 [Example 106, (3-{3-[3-ethoxy-1-(2-pyridinyl)-1H-pyrazol-4-yl]propoxy}phenyl)acetic acid] here?
The melting point was 66 to 67 °C.

Which melting point does the source give for CCOc1cc(OCCCCc2cn(-c3ccc(C(F)(F)F)cn3)nc2OCC)ccc1CCC(=O)O [Example 107, 3-[2-ethoxy-4-(4-{3-ethoxy-1-[5-(trifluoromethyl)-2-pyridinyl]-1H-pyrazol-4-yl}butoxy)phenyl]propanoic acid] here?
Its melting point is 101 to 102 °C.

Which melting point does the source give for CCOc1cc(OCCCc2cn(-c3ccccn3)nc2OCC)ccc1CCC(=O)O [Example 108, 3-(2-ethoxy-4-{3-[3-ethoxy-1-(2-pyridinyl)-1H-pyrazol-4-yl]propoxy}phenyl)propanoic acid] here?
Its melting point is 110 to 111 °C.

For CCOc1nn(-c2ccccn2)cc1CCCOc1ccc(CCC(=O)O)cc1OC [Example 109, 3-(4-{3-[3-ethoxy-1-(2-pyridinyl)-1H-pyrazol-4-yl]propoxy}-3-methoxyphenyl)propanoic acid], which melting point is on record?
The melting point was 92 to 93 °C.

For CCOc1nn(-c2ccc(C(F)(F)F)cn2)cc1CCCOc1ccc(CCC(=O)O)c(OCc2ccccc2)c1 [Example 112, 3-[2-(benzyloxy)-4-(3-{3-ethoxy-1-[5-(trifluoromethyl)-2-pyridinyl]-1H-pyrazol-4-yl}propoxy)phenyl]propanoic acid], which melting point is on record?
Its melting point is 128 to 130 °C.

With CCOc1cc(OCCCc2cn(-c3ccc(C(F)(F)F)cc3)nc2OCC)ccc1CCC(=O)O [Example 114, 3-[2-ethoxy-4-(3-{3-ethoxy-1-[4-(trifluoromethyl)phenyl]-1H-pyrazol-4-yl}propoxy)phenyl]propanoic acid] as the compound, how does the melting point read?
The melting point was 131 to 132 °C.

With CCOc1nn(-c2ccc(C(F)(F)F)cc2)cc1CCCOc1ccc(CCC(=O)O)cc1OC [Example 115, 3-[4-(3-{3-ethoxy-1-[4-(trifluoromethyl)phenyl]-1H-pyrazol-4-yl}propoxy)-3-methoxyphenyl]propanoic acid] as the compound, how does the melting point read?
The melting point was 125 to 126 °C.

With CCOc1nn(-c2ccc(C(F)(F)F)cn2)cc1CCCOc1cc(CC(=O)O)n(C)n1 [Example 119, [3-(3-{3-ethoxy-1-[5-(trifluoromethyl)-2-pyridinyl]-1H-pyrazol-4-yl}propoxy)-1-methyl-1H-pyrazol-5-yl]acetic acid] as the compound, how does the melting point read?
The melting point was 151 to 152 °C.

Which melting point does the source give for CCCc1nn(-c2ccc(C(F)(F)F)cn2)cc1COc1ccc(CCC(=O)O)c(OC)c1 [Example 120, 3-[2-methoxy-4-({3-propyl-1-[5-(trifluoromethyl)-2-pyridyl]-1H-pyrazol-4-yl}methoxy)phenyl]propionic acid] here?
The melting point was 153 to 154 °C.

For CCCc1nn(-c2ccc(C(F)(F)F)cn2)cc1COc1ccc(CCC(=O)O)c(C)c1 [Example 121, 3-[2-methyl-4-({3-propyl-1-[5-(trifluoromethyl)-2-pyridyl]-1H-pyrazol-4-yl}methoxy)phenyl]propionic acid], which melting point is on record?
The melting point was 129 to 130 °C.

With Cc1nn(-c2ccc(C(F)(F)F)cn2)cc1CCCOc1cc(CCC(=O)O)n(-c2ccccc2)n1 [Example 128, 3-[3-(3-{3-methyl-1-[5-(trifluoromethyl)-2-pyridyl]-1H-pyrazol-4-yl}propoxy)-1-phenyl-1H-pyrazol-5-yl]propionic acid] as the compound, how does the melting point read?
Its melting point is 125 to 126 °C.

With Cc1nn(-c2ccc(C(F)(F)F)cn2)cc1CCCOc1cccc(OC(C)(C)C(=O)O)c1 [Example 130, 2-methyl-2-[3-(3-{3-methyl-1-[5-(trifluoromethyl)-2-pyridyl]-1H-pyrazol-4-yl}propoxy)phenoxy]propionic acid] as the compound, how does the melting point read?
Its melting point is 107 to 108 °C.
